The source of these data is patent US20220218693A1, “IMMUNE CHECKPOINT INHIBITOR COMBINATION THERAPY USING QUINOLINE CARBOXAMIDE DERIVATIVE” (KABUSHIKI KAISHA YAKULT HONSHA, priority 2019, published 2022).

What all share (format): in vivo, BALB/c mice
In experiment [1] the test system is mouse bowel cancer cell line CT26 cells. The experiment can be described thus: Antitumor effect of combined administration in CT26 tumor-bearing mice (Example 1). The note with it: FIG. 1. The source says: Six-week-old female BALB/c mice (72 mice) were purchased from Japan SLC, Inc., conditioned and raised for 5 days in University of Shizuoka, Experimental Animal Center, and then used for experiments.
Hair on a back part and ventral parts of the BALB/c mouse was shaved, and 1×10^6 mouse bowel cancer cell line CT26 cells (ATCCs) were subcutaneously transplanted in each of the left and right ventral parts (day 0). Five days after the transplantation, the longer diameter (mm) and the shorter diameter (mm) of the tumor were measured using a digital caliper (A&D Company, Limited), and a tumor volume was calculated. […]
An average of the tumor volumes on the left and the right was calculated for each individual, and on the basis of the thus-obtained value, the mice were divided into eight groups (nine mice in each group) in such a manner that the variations in tumor volume between individuals in the groups were the same. […]
The evaluation item was an average of the tumor volumes on the left and the right in each individual. From day 5, the longer diameter (mm) and the shorter diameter (mm) of the tumor were measured at an interval of one day or two days using a digital caliper. […] An average of the tumor volumes on the left and the right was calculated for each individual. […]

Experiment [2] shares this test system. The experiment can be described thus: Antitumor effect of combined administration in CT26 tumor-bearing mice (Example 2). The note with it: STX-1159 40 mg/kg p.o. days 6, 8 and 10 + PD-1 Ab 50 μg/mouse i.p. days 8, 10 and 13; compared with either agent alone; FIG. 2. From the text: (§1) Six-week-old female BALB/c mice were purchased from Japan SLC, Inc., conditioned and raised for about a week in University of Shizuoka, Experimental Animal Center, and then used for experiments.
(§2) Hair on a back part and ventral parts of the BALB/c mouse was shaved, and 1×10^6 mouse bowel cancer cell line CT26 cells (ATCCs) were subcutaneously transplanted in each of the left and right ventral parts (day 0). Six days after the transplantation, the longer diameter (mm) and the shorter diameter (mm) of the tumor were measured using a digital caliper (A&D Company, Limited), and a tumor volume was calculated. The expression for calculation of the tumor volume was as follows: tumor volume (mm^3)=0.5×(longer diameter mm)×(shorter diameter mm)^2. An average of the tumor volumes on the left and the right was calculated for each individual, and on the basis of the thus-obtained value, the mice were divided into groups in such a manner that the variations in tumor volume between individuals in the groups were the same.
STX-1159 was orally administered at 40 mg/kg three times every other day. […]
The evaluation item was an individual tumor volume. From day 6, the longer diameter (mm) and the shorter diameter (mm) of the tumor were measured at an interval of one to four days using a digital caliper. […]

Experiment [3] has as its system mouse fibrosarcoma CMS5a cells. The experiment can be described thus: Antitumor effect of combined administration in CMS5a tumor-bearing mice (Example 3). The note with it: STX-1159 40 mg/kg p.o. days 5 to 9 + PD-1 Ab 200 μg/mouse i.p. days 12, 14 and 16; t-test versus control; FIG. 3.
Source text: as §1
as §2, with “fibrosarcoma CMS5a” for “bowel cancer cell line CT26”, “cells” for “cells (ATCCs)”, “Five” for “Six”
STX-1159 was orally administered at 40 mg/kg continuously for five days. […]
The evaluation item was an individual tumor volume. From day 5, the longer diameter (mm) and the shorter diameter (mm) of the tumor were measured at an interval of one or two days using a digital caliper. […]

As for `O=C(Nc1nnc(-c2ccco2)o1)c1cc(-c2ccccc2)nc2ccc(OC(F)(F)F)cc12` [STX-1159, N-[5-(2-furyl)-1,3,4-oxadiazol-2-yl]-2-phenyl-6-trifluoromethoxy-4-quinoline carboxamide], the “antitumor effect (tumor volume)” value in experiment [1] (STX-1159 40 mg/kg p.o. days 5 to 9 in advance + PD-1 Ab 50 μg/mouse i.p. days 12, 14 and 16, compared with simultaneous and later administration groups) was “much higher antitumor effect”; in experiment [1] (simultaneous: STX-1159 40 mg/kg p.o. days 12 to 16 + PD-1 Ab 50 μg/mouse i.p. days 12, 14 and 16, compared with each single-agent group) it was “antitumor effect was lower”; in experiment [2], “much higher antitumor effect”. Moreover, the “tumor shrinkage (tumor volume) versus control group” value in experiment [3] is recorded as “showed more significant tumor shrinkage over the control group”.
